This note sets out measurements from patent US12240811B2, “N-heterocyclic five-membered ring-containing capsid protein assembly inhibitor, pharmaceutical composition and uses thereof” (CHIA TAI TIANQING PHARMACEUTICAL GROUP CO., LTD., priority 2019, dated 2025).

Broadly, the EC50 is the midpoint of the concentration-response curve. The term IC50 denotes the midpoint of a concentration-inhibition curve.

The structures appear in SMILES notation.

Data set [1] has as its system HBV DNA in HepG2.2.15 cells. In words: In vitro cell HBV DNA inhibitory activity in HepG2.2.15 cells. The format is cell-based. The settings on record: Hepatitis B virus, 144 h, 6 days treatment, intracellular capsid HBV DNA by qPCR, read-out: EC50, anti-HBV activity in HepG2.2.15 cells. As for the experimental part: (§1) A bottle of HepG2.2.15 (Wuhan Institute of Virology) or HepAD38 cells in good exponential growth state was taken, washed once by adding 5 mL PBS, and then thereto was added 3 mL trypsin. After digesting at room temperature for 5 min, 2 mL trypsin was discarded, and then the sample was placed in a cell culture incubator and digested for 10 min. The cells were taken out and observed under a microscope (whether the cells were individually round and there was no adhesion between the cells). 10 mL complete medium was added to terminate the digestion. After pipetting into a single cell suspension, 10 μL of the cell suspension was taken out for cell counting with a cell counter, and then diluted with a complete medium and adjusted to a cell density of 1*10^5 cells/mL. […]
(§2) Compounds dissolved in DMSO were subjected to two-fold gradient dilution (10 concentrations in total) with complete medium. […] After lysing at room temperature for 10 min, DNA was extracted, and HBV DNA in the intracellular viral capsid was measured by real-time fluorescence quantitative PCR. The inhibition rate was calculated based on the Ct value, and the EC50 value was calculated by the four-parameter method.
(In qPCR the cycle at which signal appears reflects the starting amount.)

The nature of data set [2]: Stability of liver microsomes in vitro, rat. The format is in vitro ADME. As for the experimental part: (§3) 300 μL of a final incubation system contains 30 μL of liver microsomes (protein concentration: 0.15 mg/mL, Corning), 30 μL NADPH+MgCl2, 3 μL substrate (formulated with acetonitrile), and 237 μL PBS buffer. Duplicate incubation systems of 0.3 mL each were formulated for each species. A total volume of 270 μL of a uniformly mixed solution of the substrate and the enzyme was formulated in each tube, the solution and NADPH were pre-incubated at 37° C. for 5 minutes, respectively. Then 30 μL of the mixed solution of NADPH+MgCl2 was added for reaction. 50 μL of the reaction solution was taken out at 0, 10, 30, and 60 mins, and the reaction was terminated with 300 μL of ice acetonitrile containing an internal standard.
(§4) Sample pre-treatment: To 50 μL of the incubated sample was added 300 μL of ice acetonitrile containing diazepam as an internal standard and then precipitated. After vortexing for 5 minutes, the sample was centrifugated (12000 rpm, 4° C.) for 10 minutes. 75 μL of the supernatant was pipetted into a 96-well plate, and then diluted with 75 μL ultrapure water and mixed uniformly. 0.5 μL of the resulting solution was injected and analyzed by LC-MS/MS.
Background: Microsomes from liver hold many membrane-bound enzymes, among them those of drug oxidation.

A short description of data set [3]: Plasma protein binding assay, rat plasma. The format is in vitro ADME. As for the experimental part: (§5) Formulation of plasma sample: 495 μL of blank plasmas of the corresponding species (mouse, rat, dog, monkey, and human) were drawn respectively, and thereto was added 5 μL of the corresponding test compound solution or positive control to give plasma sample solutions having a plasma drug concentration of the compound of 1 μM, and 10 μM, respectively (formulated with acetonitrile).
(§6) The pre-treated dialysis membrane was placed in a high-throughput equilibrium dialysis device, and 100 μL of the plasma sample solution and PBS buffer solution were drawn and added respectively to both sides of the dialysis membrane (sample side and buffer side) (n=3). After the equilibration device was sealed with a film, it was incubated at 37° C. overnight (100 rpm). After dialysis equilibrium was reached, 50 μL samples were drawn from the sample side and the buffer side, respectively, and the reaction was terminated by adding ice acetonitrile containing an internal standard.
(§7) Sample pre-treatment: To 50 μL of the plasma-side sample was added 450 μL of ice acetonitrile containing an internal standard, and then precipitated. After vortexing for 5 minutes, the sample was centrifugated (12000 rpm, 4° C.) for 10 minutes. 75 μL of the supernatant was pipetted, and 75 μL of ultrapure water was added thereto for dilution and mixed uniformly. 1 μL of the resulting solution was injected for analysis. […]

Data set [4] in a line: Stability of liver microsomes in vitro, mouse. The format is in vitro ADME. The procedure: as §3, §4
Data set [5] can be described thus: Plasma protein binding assay, monkey plasma. The format is in vitro ADME. The procedure: as §5, §6, §7
The target in a further data set is CYP 3A4 (Homo sapiens (Human), UniProt P08684). Put plainly: CYP450 enzyme inhibition study, CYP 3A4. The format is in vitro ADME. Particulars: human liver microsomes; read-out: Subtypes IC50 3A4. The procedure: (§8) 500 μL of a final incubation system contains 50 μL of human liver microsomes (protein concentration: 0.2 mg/mL, Corning), 1 μL of mixed CYP450 specific substrates (CYP1A2, CYP 2B6, CYP 2C9, CYP2C19, CYP 2D6, and CYP 3A4), 398 μL PBS buffer (pH7.4), 1 μL specific positive inhibitor (positive control group) or the test compound (formulated with acetonitrile), and 50 μL NADPH+MgCl2. Duplicate incubation systems of 0.5 mL each were formulated for each CYP450 subtype. A total volume of 450 μL of a uniformly mixed solution of the substrate and the enzyme was formulated in each tube, and the solution and NADPH were pre-incubated at 37° C. for 5 minutes, respectively. Then 50 μL of the mixed solution of NADPH+MgCl2 was added for reaction. 50 μL of the reaction solution was taken out at 30 minutes, and the reaction was terminated with 300 μL of ice acetonitrile containing an internal standard. In addition, two control groups of 500 μL each without NADPH were prepared in parallel as a negative control group.
Chain of CYP 3A4 (P08684 whole entry): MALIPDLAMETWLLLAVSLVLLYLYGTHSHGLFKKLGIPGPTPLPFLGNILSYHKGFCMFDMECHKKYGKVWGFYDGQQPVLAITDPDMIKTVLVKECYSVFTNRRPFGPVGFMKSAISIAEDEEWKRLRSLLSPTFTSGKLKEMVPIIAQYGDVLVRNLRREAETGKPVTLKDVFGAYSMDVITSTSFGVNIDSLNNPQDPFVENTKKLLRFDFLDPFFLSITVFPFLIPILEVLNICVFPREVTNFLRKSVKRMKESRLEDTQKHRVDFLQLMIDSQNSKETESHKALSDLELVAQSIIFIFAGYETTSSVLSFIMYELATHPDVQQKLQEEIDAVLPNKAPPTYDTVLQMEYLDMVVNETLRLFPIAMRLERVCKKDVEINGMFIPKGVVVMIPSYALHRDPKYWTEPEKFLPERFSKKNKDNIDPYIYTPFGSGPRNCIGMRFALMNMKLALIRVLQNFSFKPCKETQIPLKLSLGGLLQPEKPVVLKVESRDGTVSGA
(§9) Sample pre-treatment: To 50 μL of the incubated sample was added 300 μL of ice acetonitrile containing an internal standard, and then precipitated. After vortexing for 5 minutes, the sample was centrifugated (12000 rpm, 4° C.) for 10 minutes. 75 μL of the supernatant was pipetted, and 75 μL of ultrapure water was added thereto for dilution and mixed uniformly. […]

For the next data set, the system named is HBV DNA in HepAD38 cells. In words: In vitro cell HBV DNA inhibitory activity in HepAD38 cells. The format is cell-based. Particulars: Hepatitis B virus, 144 h, 6 days treatment, intracellular capsid HBV DNA by qPCR, read-out: EC50, anti-HBV activity in HepAD38 cells. As for the experimental part:
as §1, §2

Another data set concerns the target CYP 2C9 (Homo sapiens (Human), UniProt P11712). Put plainly: CYP450 enzyme inhibition study, CYP 2C9. The format is in vitro ADME. The settings on record: human liver microsomes; read-out: Subtypes IC50 2C9. As for the experimental part: as §8, §9

Chain of CYP 2C9 (P11712 whole entry): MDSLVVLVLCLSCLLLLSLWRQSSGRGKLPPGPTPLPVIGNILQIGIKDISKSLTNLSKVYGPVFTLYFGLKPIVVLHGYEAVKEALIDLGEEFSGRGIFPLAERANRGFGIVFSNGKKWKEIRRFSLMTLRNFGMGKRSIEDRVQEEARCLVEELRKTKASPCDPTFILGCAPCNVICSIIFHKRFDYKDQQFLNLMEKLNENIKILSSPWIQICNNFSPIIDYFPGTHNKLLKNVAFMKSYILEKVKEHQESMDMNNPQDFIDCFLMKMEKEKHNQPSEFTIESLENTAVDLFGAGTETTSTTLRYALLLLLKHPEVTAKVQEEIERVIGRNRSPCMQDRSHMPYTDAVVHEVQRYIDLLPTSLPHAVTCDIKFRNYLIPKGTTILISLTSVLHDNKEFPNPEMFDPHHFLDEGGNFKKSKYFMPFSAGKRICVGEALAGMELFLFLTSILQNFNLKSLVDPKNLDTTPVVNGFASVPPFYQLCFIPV

As to `Cc1[nH]c(C(=O)C(=O)N[C@@H](C)C(F)(F)F)c(C)c1C(=O)Nc1ccc(F)c(C#N)c1` [Example 1, (S)—N-(3-cyano-4-fluorophenyl)-2,4-dimethyl-5-(2-oxo-2-((1,1,1-trifluoroprop-2-yl)amino)acetyl)-1H-pyrrole-3-carboxamide], the figures for the 50% effective concentration (EC50) (in data set [1]; with HBV DNA in HepAD38 cells) were 17.4 nM and 24 nM, respectively. Moreover, in data set [2], the “Remaining (%) of rat liver microsomes at 60 min” value stood at 99%. The “Binding rate (%) Rat” value amounted to 95.0% in data set [3] (1 μM) and 95.3% in data set [3] (10 μM). Further, in data set [4], the “Remaining (%) of mouse liver microsomes at 60 min” value amounted to 96%. In addition, the entries for the “Binding rate (%) Monkey” value in data set [5] (1 μM) and in data set [5] (10 μM) were 90.2% and 90.5%, respectively. The IC50 on CYP 3A4 and on CYP 2C9 was above 200000 nM throughout.
